Results reported in US6007823A, “Simmondsin concentrate from jojoba” (The United States of America as represented by the …, priority 1998, dated 1999).

Legend:
[1] = statement without test; cited from earlier work
[2] = Solubility of didemethyl simmondsin in absolute ethanol; format: physicochemical
Protocol: DWE, 1 gram, was stirred 30 min with 20 ml of either acetone, acetonitrile,chloroform, methanol, water, ethanol, isopropanol, 95/5 isopropanol/water or 5/95 methanol/chloroform. Supernatant was filtered, dried, weighed, and analyzed for simmondsin and analogues. […] Both the amount of simmondsins extracted and their enrichment in the extract are important in choosing a selective solvent. Therefore, selectivity was calculated as enrichment times concentration for each component, simmondsin, simmondsin ferulate, demethylsimmondsin and didemethyl simmondsin as well as the total for all four components and plotted against solvent composition and solvent to solute ratio. For simmondsin, selectivity or SIMM-- X=[(concentration of simmondsin in extract)/(concentration of simmondsin in DWE)][weight of simmondsin in extract/weight of simmondsin in DWE].

rats = conditions: Cokeleare et al. 1995; cited from earlier work
chickens = conditions: Cokeleare et al. 1995; cited from earlier work
mice = conditions: Cokeleare et al. 1995; cited from earlier work

SMILES	Bioactivity [1]	Solubility in absolute ethanol [2]	Food intake (rats)	Food intake (chickens)	Food intake (mice)
N#CC=C1C(OC2OC(CO)C(O)C(O)C2O)CC(O)C(O)C1O (centres unmarked) [didemethyl simmondsin]	non-bioactive	very limited	–	–	–
CO[C@H]1[C@@H](OC)C[C@@H](O[C@@H]2O[C@H](CO)[C@@H](O)[C@H](O)[C@H]2O)/C(=C\C#N)[C@@H]1O [simmondsin]	–	–	reduces food intake	reduces food intake	reduces food intake
